# From patent publication EP2951180B1, “2,6,7,8 SUBSTITUTED PURINES AS HDM2 INHIBITORS” (Merck Sharp & Dohme Corp., priority 2013, dated 2014)
# Target: T1, HDM2 (Homo sapiens, UniProt Q00987)
# T1 construct: Thioredoxin (N); made in house; host or cells: E. coli strain BL21(DE3)Rosetta
# Test: FRET assay (HDM2 inhibition; method not described in this part)
# Type: binding
# Conditions: Table 4
# T1 sequence (Q00987 17-125): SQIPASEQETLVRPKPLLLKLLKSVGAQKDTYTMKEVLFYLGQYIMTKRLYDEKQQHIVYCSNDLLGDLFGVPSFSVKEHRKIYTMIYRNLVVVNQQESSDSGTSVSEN
row,SMILES,IC50
1,"Cc1ccc(O)c(-c2nc3nc(C(=O)O)nc(N[C@H](C)C4CC4)c3n2Cc2ccc(Cl)cc2)c1 [Example 4.18, (R)-7-(4-chlorobenzyl)-6-((1-cyclopropylethyl)amino)-8-(2-hydroxy-5-methylphenyl)-7H-purine-2-carboxylic acid]",347 nM
2,"Cc1ccc(OCC(O)CO)c(-c2nc3nc(C(=O)O)nc(N[C@H](C)C4CC4)c3n2Cc2ccc(Cl)cc2)c1 (stereo partly drawn) [Example 4.19, 7-(4-chlorobenzyl)-6-(((R)-1-cyclopropylethyl)amino)-8-(2-(2,3-dihydroxypropoxy)-5-methylphenyl)-7H-purine-2-carboxylic acid]",586 nM
3,"Cc1ccc(OCCCO)c(-c2nc3nc(C(=O)O)nc(N[C@H](C)C4CC4)c3n2Cc2ccc(Cl)cc2)c1 [Example 4.20, (R)-7-(4-chlorobenzyl)-6-((1-cyclopropylethyl)amino)-8-(2-(3-hydroxypropoxy)-5-methylphenyl)-7H-purine-2-carboxylic acid]",112 nM

# Same assay, conditions: Table 5
row,SMILES,IC50
1,"Cc1cccc(-c2nc3nc(C(=O)O)nc(N[C@H](C)C4CC4)c3n2C(C)c2ccc(Cl)cc2)c1 (stereo partly drawn) [Example 5.1, 7-(1-(4-chlorophenyl)ethyl)-6-(((R)-1-cyclopropylethyl)amino)-8-(3-methylphenyl)-7H-purine-2-carboxylic acid]",855 nM
2,"Cc1cccc(-c2nc3nc(C(=O)O)nc(NCC4CC4)c3n2C(C)c2ccc(Cl)cc2)c1 (stereo not drawn) [Example 5.2, 7-(1-(4-chlorophenyl)ethyl)-6-((cyclopropylmethyl)amino)-8-(m-tolyl)-7H-purine-2-carboxylic acid]",984 nM
3,"Cc1cccc(-c2nc3nc(C(=O)O)nc(N[C@@H](C)C4CC4)c3n2C(C)c2ccc(Cl)cc2)c1 (stereo partly drawn) [Example 5.3, 7-(1-(4-chlorophenyl)ethyl)-6-((S)-1-cyclopropylethylamino)-8-(3-methylphenyl)-7H-purine-2-carboxylic acid]",601 nM
4,"Cc1cccc(-c2nc3nc(C(=O)O)nc(N[C@H](C)C4CC4)c3n2Cc2ccc(F)c(C(F)(F)F)c2)c1 [Example 5.4, 6-{[(1R)-1-cyclopropylethyl]amino}-7-[4-fluoro-3-(trifluoromethyl)benzyl]-8-(3-methylphenyl)-7H-purine-2-carboxylic acid]",4140 nM
5,"CCOc1ccc(C(F)(F)F)cc1Cn1c(-c2cccc(C)c2)nc2nc(C(=O)O)nc(N[C@H](C)C3CC3)c21 [Example 5.5, 6-{[(1R)-1-cyclopropylethyl]amino}-7-(2-ethoxy-5-(trifluoromethyl)benzyl)-8-(3-methylphenyl)-7H-purine-2-carboxylic acid]",2740 nM
6,"CCOc1ccccc1Cn1c(-c2cccc(C)c2)nc2nc(C(=O)O)nc(N[C@H](C)C3CCC3)c21 [Example 5.6, 6-{[(1R)-1-cyclobutylethyl]amino}-7-(2-ethoxybenzyl)-8-(3-methylphenyl)-7H-purine-2-carboxylic acid]",1840 nM
7,"Cc1cccc(-c2nc3nc(C(=O)O)nc(N[C@H](C)C4CC4)c3n2Cc2ccc(C(C)C)cc2)c1 [Example 5.7, 6-{[(1R)-1-cyclopropylethyl]amino}-7-[4-(1-methylethyl)benzyl]-8-(3-methylphenyl)-7H-purine-2-carboxylic acid]",3550 nM
8,"Cc1cccc(-c2nc3nc(C(=O)O)nc(N[C@H](C)C4CC4)c3n2Cc2ccc(OC(F)(F)F)cc2)c1 [Example 5.8, 6-{[(1R)-1-cyclopropylethyl]amino}-8-(3-methylphenyl)-7-[4-(trifluoromethoxy)benzyl]-7H-purine-2-carboxylic acid]",149 nM
9,"Cc1cccc(-c2nc3nc(C(=O)O)nc(N[C@H](C)C4CC4)c3n2Cc2ccc(C(F)(F)F)c(F)c2)c1 [Example 5.9, 6-{[(1R)-1-cyclopropylethyl]amino}-7-[3-fluoro-4-(trifluoromethyl)benzyl]-8-(3-methylphenyl)-7H-purine-2-carboxylic acid]",119 nM
10,"Cc1cccc(-c2nc3nc(C(=O)O)nc(N[C@H](C)C4CCC4)c3n2Cc2ccc(C3CC3)cc2)c1 [Example 5.10, 6-{[(1R)-1-cyclobutylethyl]amino}-7-(4-cyclopropylbenzyl)-8-(3-methylphenyl)-7H-purine-2-carboxylic acid]",270 nM
11,"Cc1cccc(-c2nc3nc(C(=O)O)nc(N[C@H](C)C4CCC4)c3n2Cc2ccc(Cl)cc2Cl)c1 [Example 5.11, 6-{[(1R)-1-cyclobutylethyl]amino}-7-(2,4-dichlorobenzyl)-8-(3-methylphenyl)-7H-purine-2-carboxylic acid]",259 nM
12,"Cc1cccc(-c2nc3nc(C(=O)O)nc(N[C@H](C)C4CCC4)c3n2Cc2ccc(C(F)(F)F)cc2Cl)c1 [Example 5.12, 7-[2-chloro-4-(trifluoromethyl)benzyl]-6-{[(1R)-1-cyclobutylethyl]amino}-8-(3-methylphenyl)-7H-purine-2-carboxylic acid]",94.6 nM
13,"Cc1cccc(-c2nc3nc(C(=O)O)nc(N[C@H](C)C4CCC4)c3n2Cc2ccc(OC(F)F)cc2)c1 [Example 5.13, 6-{[(1R)-1-cyclobutylethyl]amino}-7-[4-(difluoromethoxy)benzyl]-8-(3-methylphenyl)-7H-purine-2-carboxylic acid]",128 nM
14,"Cc1cccc(-c2nc3nc(C(=O)O)nc(N[C@H](C)C4CCC4)c3n2Cc2ccc(OC(F)(F)F)c(F)c2)c1 [Example 5.14, 6-{[(1R)-1-cyclobutylethyl]amino}-7-[3-fluoro-4-(trifluoromethoxy)benzyl]-8-(3-methylphenyl)-7H-purine-2-carboxylic acid]",36.4 nM
15,"Cc1cccc(-c2nc3nc(C(=O)O)nc(N[C@H](C)C4CC4)c3n2Cc2ccc(C(F)(F)F)c(Cl)c2)c1 [Example 5.15, 7-[3-chloro-4-(trifluoromethyl)benzyl]-6-{[(1R)-1-cyclopropylethyl]amino}-8-(3-methylphenyl)-7H-purine-2-carboxylic acid]",609 nM
16,"Cc1cccc(-c2nc3nc(C(=O)O)nc(N[C@H](C)C4CC4)c3n2Cc2ccccc2C(F)(F)F)c1 [Example 5.16, 6-{[(1R)-1-cyclopropylethyl]amino}-8-(3-methylphenyl)-7-[2-(trifluoromethyl)benzyl]-7H-purine-2-carboxylic acid]",8330 nM
17,"Cc1cccc(-c2nc3nc(C(=O)O)nc(N[C@H](C)C4CCC4)c3n2Cc2ccc(C(F)(F)F)cc2F)c1 [Example 5.17, 6-{[(1R)-1-cyclobutylethyl]amino}-7-[2-fluoro-4-(trifluoromethyl)benzyl]-8-(3-methylphenyl)-7H-purine-2-carboxylic acid]",74.3 nM
18,"CCOc1cc(C(F)(F)F)ccc1Cn1c(-c2cccc(C)c2)nc2nc(C(=O)O)nc(N[C@H](C)C3CCC3)c21 [Example 5.18, 6-{[(1R)-1-cyclobutylethyl]amino}-7-[2-ethoxy-4-(trifluoromethyl)benzyl]-8-(3-methylphenyl)-7H-purine-2-carboxylic acid]",207 nM
19,"COc1ccc(Cn2c(-c3cccc(C)c3)nc3nc(C(=O)O)nc(N[C@H](C)C4CCC4)c32)cc1 [Example 5.19, 6-{[(1R)-1-cyclobutylethyl]amino}-7-(4-methoxybenzyl)-8-(3-methylphenyl)-7H-purine-2-carboxylic acid]",582 nM
20,"CCc1ccc(Cn2c(-c3cccc(C)c3)nc3nc(C(=O)O)nc(N[C@H](C)C4CC4)c32)cc1 [Example 5.20, 6-{[(1R)-1-cyclopropylethyl]amino}-7-(4-ethylbenzyl)-8-(3-methylphenyl)-7H-purine-2-carboxylic acid]",1200 nM
21,"Cc1ccc(Cn2c(-c3cccc(C)c3)nc3nc(C(=O)O)nc(N[C@H](C)C4CC4)c32)cc1 [Example 5.21, 6-{[(1R)-1-cyclopropylethyl]amino}-7-(4-methylbenzyl)-8-(3-methylphenyl)-7H-purine-2-carboxylic acid]",1200 nM
